{
  "source": "patent US20080058890A1",
  "about": "“HOMOTOPIC CO[…] THE BRAIN STEM […] A SUBJECT” (The Penn State Research Foundation, priority 2006, published 2008)",
  "tested_on": "NMDA receptor",
  "settings": "NMB rat; CPP 2.5 mg total i.v. (1.25 mg/ml x 0.2 ml/min x 10 min) infused before tetanus; ERs hours 7-16 post-tetanus vs control",
  "data": [
    {"smiles": "O=C(O)C1CN(CCCP(=O)(O)O)CCN1", "note": "(stereo not shown) [CPP, 3-(2-Carboxypiperazin-4-yl)-propyl-1-phosphoric acid]", "values": [
      {"measurement": "effect of a A+C-fiber tetanus on the A-fiber ERs (NTS evoked responses)", "value": "blocked the effect of a A+C-fiber tetanus on the A-fiber ERs"}
    ]}
  ]
}
